In patent US9725418B2, “Pyrimidine compound” (Sumitomo Chemical Company, Limited, priority 2014, dated 2017):

What was measured:
Assay type in all cases: in vivo
[1] = tested on: African malaria mosquito (Anopheles gambiae); assay: Test Example 11: topical application, African malaria mosquito mortality; settings: 48 h, 167 ppm in acetone, 0.3 μL topically applied to pronotum of female adults, two days post the topical application, read-out: Mortality of insects
Method: Ten (10) mg of the compound of the present invention was dissolved into 3 mL of acetone. Further the agent solution was diluted with acetone to twenty times to prepare the testing agent solution (the active ingredient concentration 167 ppm). African malaria mosquito (Anopheles gambiae) adults were subjected to an anesthetic treatment with carbon dioxide gas, and then each of 0.3 μL of the above-mentioned testing agent solution was topically applied to a pronotum of a female insect. A test was carried out 10 heads per group, and after the topical application, the insects were transferred to a cup, and fed with 5% sugar solution. At two days post the topical application, the life and death of African malaria mosquito was examined, and the mortality of insects was calculated by the following equation. Mortality of insects (%)=(Number of dead insects)/(Number of tested insects)×100

[2] = tested on: housefly (Musca domestica); assay: Test Example 9: filter paper with sucrose bait, housefly mortality; settings: 0.7 mL on filter paper, female adults, after 24 hours, read-out: Mortality of insects
Method: (§1) A Formulation of the compound of the present invention that was prepared according to Formulation Example 5 was diluted with water so that the active ingredient concentration was set to 500 ppm to prepare a testing agent solution.
The bottom of the polyethylene cup having 5.5 cm diameter was matted with the same size of a filter paper, and 0.7 mL of the above-mentioned testing agent solution was added dropwise to the filter, and 30 mg of sucrose as bait was placed in the cup uniformly. Ten (10) heads of female adult housefly (Musca domestica) were released into the polyethylene cup and the cup was covered with the lid. After 24 hours, the life and death of housefly was examined, and the number of died insects was counted and the mortality of insects was calculated by the following equation. Mortality of insects (%)=(Number of dead insects/Number of tested insects)×100

[3] = tested on: summer fruit tortrix (Adoxophyes orana); assay: Test Example 3: artificial diet, summer fruit tortrix mortality; settings: 168 h, 1 mL on artificial diet SilkMate 2S, first instar larvae, after 7 days
Method: (§2) A formulation of the compound of the present invention that was prepared according to Formulation Example 5 was diluted with water so that the active ingredient concentration was set to 500 ppm to prepare a testing agent solution.
A filter paper having a diameter of 5.5 cm was spread on the bottom of a polyethylene cup having a diameter of 5.5 cm. SilkMate 2S (manufactured by NOSAN CORPORATION), an artificial diet, was sliced to 2 mm in thickness and then placed on the filter paper. Then, 1 mL of the test solution (500 ppm) was poured into the polyethylene cup. After the test solution was air-dried, the filter paper having a diameter of 5.5 cm was put on the artificial diet, and 30 first instar larvae of summer fruit tortrix (Adoxophyes orana) were released on the filter paper, and the cup was sealed with a lid. After 7 days, the number of surviving summer fruit tortrix was counted and mortality was calculated according to the following equation. Mortality (%)=(Number of dead larvae/Number of tested larvae)×100

[4] = tested on: rice planthopper (Nilaparvata lugens); assay: Test Example 5: rice seedling plant foot irrigation, rice planthopper controlling value; settings: 500 ppm, 5 mL irrigated into plant foot of rice seedling; larvae released after 7 days; counted after 6 days
Method: (§3) A formulation of the compound of the present invention that was prepared according to Formulation Example 5 was diluted with water so that the active ingredient concentration was set to 500 ppm to prepare a testing agent solution. Rice seedling (on the developmental stage of the second true leaf) was planted in a polyethylene cup, and the above-mentioned test solutions 5 mL were irrigated into the plant foot, and the plants were held at 25° C. in a greenhouse for 7 days. Twenty (20) heads of three to four instar larvae of rice planthopper (Nilaparvata lugens) were released and the plants were held in a greenhouse at 25° C. After 6 days, the number of the surviving insects that were parasitic on the leaves of the rice was examined and the controlling value was calculated by the following equation. Controlling value (%)={1−(Cb×Tai)/(Cai×Tb)}×100 wherein the symbols in the formula represent the following descriptions. Cb: Number of the insects before treatment in untreated area; Cai: Number of the surviving parasitic insects at the time of the investigation in untreated area; Tb: Number of the insects before treatment in treated area; Tai: Number of the surviving parasitic insects at the time of the investigation in treated area;

[5] = tested on: cotton aphid (Aphis gossypii); assay: Test Example 6: cucumber seedling spray, cotton aphid controlling value; settings: 500 ppm, 20 mL sprayed on cucumber seedling; 6 days post the spraying
Method: A formulation of the compound of the present invention that was prepared according to Formulation Example 5 was diluted with water so that the active ingredient concentration was set to 500 ppm to prepare a testing agent solution. Cucumber seedling on the developmental stage of the first true leaf) was planted in a plastic cup, and about 30 heads of cotton aphid (Aphis gossypii) were released onto the leaves of the cucumber and allowed to stand for 1 day. The above-mentioned test solutions 20 mL were sprayed into the seedling. At 6 days post the spraying, the number of the surviving insects that were parasitic on the leaves of the cucumber was examined and the controlling value was calculated by the following equation. Controlling value (%)={1−(Cb×Tai)/(Cai×Tb)}×100 wherein the symbols in the formula represent the following descriptions. Cb: Number of the insects before treatment in untreated area; Cai: Number of the surviving parasitic insects at the time of the investigation in untreated area; Tb: Number of the insects before treatment in treated area; Tai: Number of the surviving parasitic insects at the time of the investigation in treated area;

[6] = tested on: rice planthopper (Nilaparvata lugens); assay: Test Example 4: rice seedling spray, rice planthopper controlling value; settings: 500 ppm, 10 mL sprayed on rice seedling; three to four instar larvae; 25° C.; after 6 days
Method: as §3, with “solutions 10” for “solutions 5”, “were sprayed. After” for “were irrigated into”, “the test solution was air-dried, twenty” for “the plant foot, and the plants were held at 25° C. in a greenhouse for 7 days. Twenty”

[7] = tested on: cotton aphid (Aphis gossypii); assay: Test Example 7: cucumber root soaking, cotton aphid controlling value; settings: 500 ppm, cucumber root soaked in 5 mL; inoculated one day after treatment; 7 days post the inoculation
Method: as §2
Soils were washed off from the cucumber seedlings (on the developmental stage of the first true leaf). The root of the cucumber seedlings was soaked in the above-mentioned test solutions 5 mL, and at one day after the treatment, thirty heads of cotton aphid (Aphis gossypii) (all stages of life) were inoculated onto the leaves of the cucumber. At 7 days post the inoculation, the number of the surviving insets that were parasitic on the leaves of the cucumber was examined, and the controlling value was calculated by the following equation. Controlling value (%)={1−(Cb×Tai)/(Cai×Tb)}×100 wherein the symbols in the formula represent the following descriptions.
Cb: Number of the insects before treatment in untreated area;
Cai: Number of the surviving parasitic insects at the time of the investigation in untreated area;
Tb: Number of the insects before treatment in treated area;
Tai: Number of the surviving parasitic insects at the time of the investigation in treated area;

[8] = tested on: common house mosquito (Culex pipiens pollens); assay: Test Example 10: larvae in treated water, common house mosquito mortality; settings: active ingredient concentration of 3.5 ppm in water, final instar larvae, after 24 hours, read-out: Mortality of insects
Method: as §1
The above-mentioned testing agent solution 0.7 mL was added to 100 mL of ion-exchange water (the active ingredient concentration of 3.5 ppm). Twenty (20) heads of the final instar larvae of common house mosquito (Culex pipiens pollens) was released onto the above-mentioned solution. After 24 hours, the life and death of common house mosquito was examined, and the number of died insects was counted and the mortality of insects was calculated by the following equation. Mortality of insects (%)=(Number of dead insects)/(Number of tested insects)×100

[9] = tested on: cabbage moth (Plutella xylostella); assay: Test Example 1: cabbage foliar spray, cabbage moth mortality; settings: 120 h, 20 mL sprayed onto cabbage, second instar larvae, 25° C., after 5 days
Method: as §2
Twenty (20) mL of the above-mentioned testing medicinal solution was sprayed onto a cabbage (Brassicae oleracea) in the third to fourth leaf stage. After the testing medicinal solution was dried, the aerial part of the plant was cut, and then was installed in a polyethylene cup (volume 100 mL) together with five heads of cabbage moth (Plutella xylostella) at the second instar larval stages. The cup was held at 25° C. and after 5 days, the number of surviving insects was counted and the mortality was calculated according to the following equation. Mortality (%)=(Number of dead larvae/Number of tested larvae)×100

[10] = tested on: tobacco cutworm (Spodoptera litura); assay: Test Example 2: artificial diet, tobacco cutworm mortality; settings: 144 h, 2 mL on artificial diet Insecta LF, fourth instar larvae, after 6 days
Method: as §2
The bottom of the polyethylene cup having 5.5 cm diameter was matted with the same size of a filter paper. Insecta LF (manufactured by NOSAN CORPORATION), an artificial diet, was sliced to 6 mm in thickness, cut into half, and then placed on the filter paper. Then, 2 mL of the test solution was poured into the polyethylene cup. After the test solution was air-dried, 5 fourth instar larvae of tobacco cutworm (Spodoptera litura) were released into the polyethylene cup and the cup was sealed with a lid. After 6 days, the number of surviving tobacco cutworm (Spodoptera litura) was counted and the mortality was calculated according to the following equation. Mortality (%)=(Number of dead larvae/Number of tested larvae)×100

[11] = tested on: two spotted spider mites (Tetranychus urticae); assay: Test Example 8: kidney bean spray, two spotted spider mite controlling value; settings: 500 ppm, sprayed on kidney beans; female adults; 25° C.; 13 days post the treatment
Method: as §2
Forty (40) heads of female adult of two spotted spider mites (Tetranychus urticae) were released onto kidney beans (immediately after the development of the primary leaf). Next day, the above-mentioned test solutions were sprayed with a spray gun in the dripping amount of the chemical solution. The plants were placed in a thermostatic breeding room (25° C.), and at 13 days post the treatment, the number of the surviving insects was examined, and the controlling value was calculated by the following equation. Controlling value (%)={1−(Number of the surviving female adult insects in treated area}/(Number of the surviving female adult insects in untreated area)×100

With `CCc1ncnc(NCCc2ccc(C(F)(F)F)cc2)c1Cl` [compound of the present invention] the mortality at 167 ppm [1] was ≥ 90%, the mortality at 500 ppm [2] was 100% and the mortality at 500 ppm [3] was ≥ 90%. The Controlling value [4] was ≥ 90%, the Controlling value [5] was ≥ 90% and the Controlling value [6] was ≥ 90%. The Controlling value [7] was ≥ 90%, the mortality at 3.5 ppm [8] was ≥ 90% and the mortality at 500 ppm [9] was ≥ 80%. The mortality at 500 ppm [10] was ≥ 80% and the Controlling value [11] was ≥ 90%.
